Test results: patent publication US12077503B2, “Substituted cyclic amides and their use as herbicides” (FMC CORPORATION, priority 2015, dated 2024)

What was measured:
Type in all cases: in vivo
[1] = test system: ragweed (common ragweed, Ambrosia elatior); assay: Test A preemergence; conditions: Ambrosia artemisiifolia, pre-emergence, 240 h, preemergence, read-out: Ragweed plant response rating; for pest or weed control at 500 g/ha: 500 g ai/ha, visual injury rating about 10 d after treatment, 0 to 100 scale (0 no effect, 100 complete control)
Procedure, shortened: (§1)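 Ratings of 0 (no effect) to 100 (complete control) come from visual comparison with untreated controls roughly 10 d after treatment. Test chemicals, formulated in a non-phytotoxic solvent mixture with surfactant, were applied either as a preemergence directed soil spray on seeded soil or postemergence to one- to two-leaf plants 2 to 10 cm tall.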

[2] = test system: Galium (catchweed bedstraw, Galium aparine); assay: Test A postemergence; conditions: Galium, post-emergence, 240 h, 125 g ai/ha, Postemergence; visual injury after approximately 10 d; 0 to 100 scale where 0 is no effect and 100 is complete control; read-out: Plant response rating, Galium
Procedure, shortened: as §1

[3] = test system: Kochia (Kochia scoparia); assay: Test A postemergence; conditions: Bassia scoparia, post-emergence, 240 h, 125 g ai/ha, Postemergence; visual injury after approximately 10 d; 0 to 100 scale where 0 is no effect and 100 is complete control; read-out: Plant response rating, Kochia
Procedure, shortened: as §1

[4] = test system: barnyardgrass (Echinochloa crus-galli); assay: Test A postemergence; conditions: Echinochloa crus-galli, post-emergence, 240 h, 125 g ai/ha, Postemergence; visual injury after approximately 10 d; 0 to 100 scale where 0 is no effect and 100 is complete control; read-out: Plant response rating, Barnyardgrass
Procedure, shortened: as §1

[5] = test system: blackgrass (Alopecurus myosuroides); assay: Test A postemergence; conditions: Alopecurus myosuroides, post-emergence, 240 h, 125 g ai/ha, Postemergence; visual injury after approximately 10 d; 0 to 100 scale where 0 is no effect and 100 is complete control; read-out: Plant response rating, Blackgrass
Procedure, shortened: as §1

[6] = test system: corn (Zea mays); assay: Test A postemergence; conditions: Zea mays, post-emergence, 240 h, 125 g ai/ha, Postemergence; visual injury after approximately 10 d; 0 to 100 scale where 0 is no effect and 100 is complete control
Procedure, shortened: as §1

[7] = test system: giant foxtail (Setaria faberii); assay: Test A postemergence; conditions: Setaria faberi, post-emergence, 240 h, 125 g ai/ha, Postemergence; visual injury after approximately 10 d; 0 to 100 scale where 0 is no effect and 100 is complete control; read-out: Plant response rating, Foxtail, Giant
Procedure, shortened: as §1

[8] = test system: pigweed (Amaranthus retroflexus); assay: Test A postemergence; conditions: Amaranthus retroflexus, post-emergence, 240 h, 125 g ai/ha, Postemergence; visual injury after approximately 10 d; 0 to 100 scale where 0 is no effect and 100 is complete control; read-out: Plant response rating, Pigweed
Procedure, shortened: as §1

[9] = test system: ragweed (common ragweed, Ambrosia elatior); assay: Test A postemergence; conditions: Ambrosia artemisiifolia, post-emergence, 240 h, 125 g ai/ha, Postemergence; visual injury after approximately 10 d; 0 to 100 scale where 0 is no effect and 100 is complete control; read-out: Plant response rating, Ragweed
Procedure, shortened: as §1

[10] = test system: ryegrass, Italian (Italian ryegrass, Lolium multiflorum); assay: Test A postemergence; conditions: Lolium multiflorum, post-emergence, 240 h, 125 g ai/ha, Postemergence; visual injury after approximately 10 d; 0 to 100 scale where 0 is no effect and 100 is complete control; read-out: Plant response rating, Ryegrass, Italian
Procedure, shortened: as §1

[11] = test system: wheat (Triticum aestivum); assay: Test A postemergence; conditions: Triticum aestivum, post-emergence, 240 h, 125 g ai/ha, Postemergence; visual injury after approximately 10 d; 0 to 100 scale where 0 is no effect and 100 is complete control; read-out: Plant response rating, Wheat
Procedure, shortened: as §1

[12] = test system: barnyardgrass (Echinochloa crus-galli); assay: Test B flooded paddy test; conditions: Echinochloa crus-galli, Flood, 250 g ai/ha; scale of 0 to 100 where 0 is no effect and 100 is complete control; read-out: Barnyardgrass plant response rating
Procedure, shortened: (§2)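 Rating scale 0–100 (visual, vs untreated controls) after a 13–15 d greenhouse period; application to the flood layer, 3 cm above soil and maintained; plants at 2-leaf stage when treated.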

[13] = test system: ducksalad (Heteranthera limosa); assay: Test B flooded paddy test; conditions: Heteranthera limosa, Flood, 250 g ai/ha; scale of 0 to 100 where 0 is no effect and 100 is complete control; read-out: Ducksalad plant response rating
Procedure, shortened: as §2

[14] = test system: rice (Oryra sativa); assay: Test B flooded paddy test; conditions: Oryza sativa, Flood, 250 g ai/ha; scale of 0 to 100 where 0 is no effect and 100 is complete control; read-out: Rice plant response rating
Procedure, shortened: as §2

[15] = test system: sedge, umbrella (small-flower umbrella sedge, Cyperus difformis); assay: Test B flooded paddy test; conditions: Cyperus difformis, Flood, 250 g ai/ha; scale of 0 to 100 where 0 is no effect and 100 is complete control; read-out: Sedge, Umbrella plant response rating
Procedure, shortened: as §2

SMILES	pest or weed control at 125 g/ha ([1]; 125 g ai/ha, 0 to 100 scale where 0 is no effect and 100 is complete control) [%]	pest or weed control at 500 g/ha [1] [%]	pest or weed control at 125 g/ha [2] [%]	pest or weed control at 125 g/ha [3] [%]	pest or weed control at 125 g/ha [4] [%]	pest or weed control at 125 g/ha [5] [%]	Corn plant response rating (crop injury, 0 = no effect, 100 = complete kill) at 125 g/ha [6] [%]	pest or weed control at 125 g/ha [7] [%]	pest or weed control at 125 g/ha [8] [%]	pest or weed control at 125 g/ha [9] [%]	pest or weed control at 125 g/ha [10] [%]	plant injury at 125 g/ha [11] [%]	pest or weed control at 250 g/ha [12] [%]	pest or weed control at 250 g/ha [13] [%]	pest or weed control at 250 g/ha [14] [%]	pest or weed control at 250 g/ha [15] [%]
Cc1cc([C@H]2CN(C)C(=O)[C@@H]2C(=O)Nc2ccccc2F)ccc1Cl [Compound 928]	0	0	50	40	90	30	40	90	20	0	50	40	55	80	0	0
Cc1cc([C@H]2CN(C)C(=O)[C@@H]2C(=O)Nc2ccc(F)cc2F)ccc1Cl [Compound 930]		0	40	20	80	20	40	80	30	0	30	30	50	80	0	0
CN1C[C@H](c2ccc(C(F)(F)F)cc2)[C@@H](C(=O)Nc2ccc(F)cc2Br)C1=O [Compound 934]		30	60	20	60	0	20	90	20	0	0	0	0	60	0	0
Cc1cc(F)ccc1NC(=O)[C@H]1C(=O)N(C)C[C@@H]1c1ccc(C(F)(F)F)cc1 [Compound 936]		50	40	20	60	30	30	90	20	0	0	30	0	85	0	0
Cc1cccc(NC(=O)[C@H]2C(=O)N(C)C[C@@H]2c2ccc(C(F)(F)F)cc2)c1F [Compound 939]		50	20	0	80	0	0	90	0	0	0	20	0	40	0	0
Cc1cccc(NC(=O)[C@H]2C(=O)N(C)C[C@@H]2c2ccc(C(F)(F)F)cc2)c1C [Compound 941]		30	20	0	50	0	0	60	0	0	0	0	0	35	0	0
CN1C[C@H](c2ccc(C(F)(F)F)cc2)[C@@H](C(=O)Nc2ccc(F)cc2C(F)(F)F)C1=O [Compound 942]		50	50	30	60	70	0	80	70	0	0	20	0	40	0	0
